Results published in patent US20090099192A1, “Substituted 1H-pyrrole-2,5-diones” (Bayer CropScience AG, priority 2004, published 2009).

Columns and labels:
[1] = logP determination by HPLC on reversed-phase column (C 18), EEC Directive 79/831 Annex V.A8; assay type: physicochemical; conditions: reversed-phase C 18, 43° C., acid range (0.1% aqueous phosphoric acid, acetonitrile), marked a)
Summary of the method: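 Reversed-phase C18 HPLC at 43° C, per EEC Directive 79/831 Annex V.A8, acid range: 0.1% aqueous phosphoric acid with linear 10–90% acetonitrile gradient. logP derived from retention time by linear interpolation between calibrating unbranched alkan-2-ones (C3–C16) of known logP.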

[2] = test system: larvae of the mustard beetle (Phaedon cochleariae); test: Phaedon test (spray treatment); assay type: in vivo; conditions: for Kill rate in % after 7 d: 500 g/ha, spray, Brassica pekinensis disks
Procedure: (§1) [table] To produce a suitable preparation of active compound, 1 part by weight of active compound is mixed with the stated amounts of solvents and emulsifier, and the concentrate is diluted with emulsifier-containing water to the desired concentration. Disks of Chinese cabbage (Brassica pekinensis) are sprayed with an active compound preparation of the desired concentration and, after drying, populated with larvae of the mustard beetle (Phaedon cochleariae). After the desired period of time, the effect in % is determined. 100% means that all beetle larvae have been killed; 0% means that none of the beetle larvae have been killed.

[3] = test system: common spidermite (Tetranychus urticae); test: Tetranychus test; assay type: in vivo; conditions: for Kill rate in % after 5 d: 500 ppm, spray, Phaseolus vulgaris disks
Procedure: To produce a suitable preparation of active compound, 1 part by weight of active compound is mixed with the stated amounts of solvent and emulsifier, and the concentrate is diluted with emulsifier-containing water to the desired concentration.
Disks of beans (Phaseolus vulgaris), which are infested by all stages of the common spidermite (Tetranychus urticae) are sprayed with an active compound preparation of the desired concentration.
After the desired period of time, the effect in % is determined. 100% means that all spidermites have been killed; 0% means that none of the spidermites have been killed.

[4] = test system: larvae of the mustard beetle (Phaedon cochleariae); test: Phaedon larvae test (cabbage leaves dipped); assay type: in vivo; conditions: for Kill rate in % after 7 d: leaf dip, Brassica oleracea
Procedure: [table] To produce a suitable preparation of active compound, 1 part by weight of active compound is mixed with the stated amount of solvent and the stated amount of emulsifier, and the concentrate is diluted with water to the desired concentration. Cabbage leaves (Brassica oleracea) are treated by being dipped into the active compound preparation of the desired concentration and populated with larvae of the mustard beetle (Phaedon cochleariae) while the leaves are still moist. After the desired period of time, the kill in % is determined. 100% means that all beetle larvae have been killed; 0% means that none of the beetle larvae have been killed.

[5] = test system: caterpillars of the army worm (Spodoptera frugiperda); test: Spodoptera frugiperda test (corn leaf disks sprayed); assay type: in vivo; conditions: for Kill rate in % after 7 d: 500 g/ha, spray, Zea mays leaf disks
Procedure: as §1, with “corn leaves (Zea mays)” for “Chinese cabbage (Brassica pekinensis)”, “caterpillars” for “larvae”, “army worm (Spodoptera frugiperda).” for “mustard beetle (Phaedon cochleariae).”, “caterpillars” for “beetle larvae”

[6] = test system: green peach aphid (Myzus persicae); test: Myzus test (spray treatment, Brassica pekinensis); assay type: in vivo; conditions: for Kill rate in % after 5 d: 500 g/ha, spray, Brassica pekinensis disks
Procedure: as §1, with “pekinensis) which are infested by all stages of the green peach aphid (Myzus persicae)” for “pekinensis)”, “concentration.” for “concentration and, after drying, populated with larvae of the mustard beetle (Phaedon cochleariae).”, “aphids” for “beetle larvae”

| SMILES | logP [1] | activity in the Phaedon test (spray treatment) [2] | Kill rate in % after 7 d [2] | activity in the Phaedon larvae test [4] | further results |
| --- | --- | --- | --- | --- | --- |
| O=C1C(O)=C(c2cc(F)cc(F)c2F)C(=O)N1C1CCCC(C(F)(F)F)C1 (centres unmarked) [Example 193] | logP = 3.42^a) | good activity | 100% |  | activity in the Tetranychus test [3]: good activity; Kill rate in % after 5 d [3]: 90% |
| Cc1cc(C)c(C2=C(O)C(=O)N(Cc3ccccc3)C2=O)c(C)c1 [Example 5] |  |  |  | good activity | Kill rate in % after 7 d ([4]; 1000 ppm): 100% |
| Cc1ccc(S(=O)(=O)OC2=C(c3ccccc3Cl)C(=O)N(C3CCCC(C(F)(F)F)C3)C2=O)cc1 (centres unmarked) [Example 208] | logP = 4.89^a) | good activity | 100% |  |  |
| O=C1C(O)=C(c2ccc(OC(F)(F)F)cc2)C(=O)N1c1ccc(OC(F)(F)F)cc1 [Example 9] | logP = 4.12^a) |  |  | good activity | Kill rate in % after 7 d ([4]; 500 ppm): 90% |
| O=C1C(O)=C(c2ccc(C(F)(F)F)cc2)C(=O)N1CC(F)(F)F [Example 8] |  |  |  | good activity | Kill rate in % after 7 d ([4]; 500 ppm): 100% |
| O=C1C(OCc2ccccc2)=C(c2ccccc2Cl)C(=O)N1C1CCCC(C(F)(F)F)C1 (centres unmarked) [Example 204] | logP = 5.01^a) | good activity | 100% |  | activity in the Spodoptera frugiperda test (spray) [5]: good activity; Kill rate in % after 7 d [5]: 100% |
| CC(C)(C)C(=O)OC1=C(c2ccccc2I)C(=O)N(C2CCCC(C(F)(F)F)C2)C1=O (centres unmarked) [Example 221] |  | good activity | 100% |  | activity in the Myzus test (spray, Brassica pekinensis) [6]: good activity; Kill rate in % after 5 d [6]: 100%; activity in the Tetranychus test [3]: good activity; Kill rate in % after 5 d [3]: 80% |
| Cc1ccccc1C1=C(O)C(=O)N(C2CC(C(F)(F)F)CC(C(F)(F)F)C2)C1=O (centres unmarked) [Example 216] | logP = 3.85^a) |  |  | good activity | Kill rate in % after 7 d ([4]; 500 ppm): 100% |
| CC(C)(c1ccccc1)N1C(=O)C(O)=C(c2cccc(C(F)(F)F)c2)C1=O [Example 7] |  |  |  | good activity | Kill rate in % after 7 d ([4]; 1000 ppm): 100% |
| O=C1C(O)=C(c2ccccc2OC(F)(F)F)C(=O)N1C1CCCC(C(F)(F)F)C1 (centres unmarked) [Example 190] | logP = 3.77^a) | good activity | 100% |  | activity in the Spodoptera frugiperda test (spray) [5]: good activity; Kill rate in % after 7 d [5]: 83% |
| O=C1C(O)=C(c2c(F)cccc2F)C(=O)N1C1CCC(C(F)(F)F)CC1 (centres unmarked) [Example 209] |  |  |  | good activity | Kill rate in % after 7 d ([4]; 500 ppm): 100% |
| CC(C)(C)C(=O)OC1=C(c2ccccc2Cl)C(=O)N(C2CCCCC2C(F)(F)F)C1=O (centres unmarked) [Example 206] | logP = 5.22^a) |  |  |  | activity in the Myzus test (spray, Brassica pekinensis) [6]: good activity; Kill rate in % after 5 d [6]: 90% |
| O=C1C(O)=C(c2cc(F)ccc2Br)C(=O)N1C1CCCC(C(F)(F)F)C1 (centres unmarked) [Example 198] | logP = 3.46^a) | good activity | 100% |  |  |
| Cc1ccccc1C1=C(O)C(=O)N(C2CCCC(C(F)(F)F)C2)C1=O (centres unmarked) [Example 188] | logP = 3.11^a) | good activity | 100% |  | activity in the Spodoptera frugiperda test (spray) [5]: good activity; Kill rate in % after 7 d [5]: 100% |
| COc1ccccc1C1=C(O)C(=O)N(C2CCCC(C(F)(F)F)C2)C1=O (centres unmarked) [Example 189] | logP = 3.32^a) | good activity | 83% |  |  |
| CC1CCCC(N2C(=O)C(O)=C(c3ccccc3Br)C2=O)C1 (centres unmarked) [Example 197] | logP = 3.61^a) | good activity | 100% |  | activity in the Spodoptera frugiperda test (spray) [5]: good activity; Kill rate in % after 7 d [5]: 100% |
| O=C1C(O)=C(c2ccccc2Br)C(=O)N1C1CCCC(C(F)(F)F)C1 (centres unmarked) [Example 218] |  | good activity | 100% |  | activity in the Spodoptera frugiperda test (spray) [5]: good activity; Kill rate in % after 7 d [5]: 100%; activity in the Myzus test (spray, Brassica pekinensis) [6]: good activity; Kill rate in % after 5 d [6]: 80% |

| SMILES | logP [1] | activity in the Phaedon test (spray treatment) [2] | Kill rate in % after 7 d [2] | activity in the Phaedon larvae test [4] | further results |
| --- | --- | --- | --- | --- | --- |
| O=C1C(O)=C(c2ccccc2[N+](=O)[O-])C(=O)N1C1CCCC(C(F)(F)F)C1 (centres unmarked) [Example 194] | logP = 3.01^a) | good activity | 100% |  |  |
| CC1(C)CC(N2C(=O)C(O)=C(c3ccccc3Cl)C2=O)CC(C)(C)C1 [Example 200] |  | good activity | 100% |  |  |
| O=C1C(OCc2ccc(Cl)cc2)=C(c2ccccc2Cl)C(=O)N1C1CCCC(C(F)(F)F)C1 (centres unmarked) [Example 203] |  | good activity | 100% |  | activity in the Spodoptera frugiperda test (spray) [5]: good activity; Kill rate in % after 7 d [5]: 100% |
| O=C1C(O)=C(c2ccccc2Cl)C(=O)N1C1CCC(C(F)(F)F)CC1 (centres unmarked) [Example 210] | logP = 3.59^a) |  |  | good activity | Kill rate in % after 7 d ([4]; 500 ppm): 100% |
| CC(C)N1C(=O)C(O)=C(c2cccc(C(F)(F)F)c2)C1=O [Example 6] |  |  |  | good activity | Kill rate in % after 7 d ([4]; 1000 ppm): 100% |
| O=C1C(O)=C(c2ccc(Br)cc2Cl)C(=O)N1C1CCCC(C(F)(F)F)C1 (centres unmarked) [Example 187] | logP = 2.47^a) | good activity | 100% |  |  |
| O=C1C(O)=C(c2ccc(Cl)cc2Br)C(=O)N1C1CCCC(C(F)(F)F)C1 (centres unmarked) [Example 186] | logP = 2.53^a) | good activity | 100% |  | activity in the Spodoptera frugiperda test (spray) [5]: good activity; Kill rate in % after 7 d [5]: 100% |
| CC1CC(N2C(=O)C(O)=C(c3ccccc3Cl)C2=O)CC(C)(C)C1 (centres unmarked) [Example 199] | logP = 4.18^a) | good activity | 100% |  |  |
| O=C1C(O)=C(c2c(Cl)cc(C(F)(F)F)cc2Cl)C(=O)N1C1CCCC(C(F)(F)F)C1 (centres unmarked) [Example 191] | logP = 4.05^a) | good activity | 100% |  | activity in the Tetranychus test [3]: good activity; Kill rate in % after 5 d [3]: 90% |
| O=C1C(O)=C(c2ccccc2F)C(=O)N1C1CCCC(C(F)(F)F)C1 (centres unmarked) [Example 213] | logP = 3.42^a) |  |  | good activity | Kill rate in % after 7 d ([4]; 500 ppm): 100% |
| Cc1ccc(-c2ccc(Cl)cc2)cc1C1=C(O)C(=O)N(Cc2ccc(OC(F)(F)F)cc2)C1=O [Example 134] | logP = 4.84^a) |  |  |  |  |
| COC(=O)C1(N2C(=O)C(O)=C(c3ccccc3Cl)C2=O)CCCCC1 [Example 165] | logP = 3.10^a) |  |  |  |  |
| Cc1ccc(-c2ccc(Cl)cc2)cc1C1=C(O)C(=O)N(c2ccccc2F)C1=O [Example 145] | logP = 4.94^a) |  |  |  |  |
| O=C1C(O)=C(c2cccc(C(F)(F)F)c2)C(=O)N1Cc1ccc(OC(F)(F)F)cc1 [Example 85] | logP = 4.15^a) |  |  |  |  |
| O=C1C(O)=C(c2ccc(Cl)cc2)C(=O)N1CC(F)(F)F [Example 41] | logP = 2.82^a) |  |  |  |  |
| O=C1C(O)=C(c2ccc(C(F)(F)F)cc2)C(=O)N1C1CCC(C(F)(F)F)CC1 (centres unmarked) [Example 211] | logP = 4.28^a) |  |  | good activity | Kill rate in % after 7 d ([4]; 500 ppm): 90% |
